Data taken from ChEMBL document CHEMBL1148853, “Studies on acyl pyrrolidine inhibitors of HCV RNA-dependent RNA polymerase to identify a molecule with replicon antiviral activity” (Bioorg Med Chem Lett, 2007).

Legend:
[1] = Inhibition of HCV NS5B J4 delta 21 polymerase; design: species or system Hepacivirus hominis
[2] = Inhibition of HCV NS5B RB01 polymerase; design: species or system Hepacivirus hominis
Hepacivirus hominis = experiment: Inhibition of HCV NS5B J4 delta 21 polymerase at 10 uM
[3] = Permeability across artificial membrane by PAMPA assay; type: ADME; details: read-out: permeability
Hepatitis C virus = experiment: Inhibition of HCV replicon by cell based assay; type: functional, organism-based, Hepacivirus hominis

IC50 [1] | IC50 [2] | Structure (SMILES) | other results
 | 20 µM | CC(C)C[C@@]1(C(=O)O)C[C@H](C(=O)O)[C@H](c2cccs2)N1C(=O)c1ccc(C(F)(F)F)cc1 (stereo in doubt; 1) | 
0.07 µM | 3.8 µM | CC(C)C[C@@]1(C(=O)O)C[C@H](C(=O)O)[C@H](c2nccs2)N1C(=O)c1ccc(C(C)(C)C)cc1 (stereo in doubt; 28) | 
2.36 µM |  | CC(C)C[C@@]1(C(=O)O)C[C@H](C(=O)O)[C@H](c2nccs2)N1C(=O)c1ccc(C(C)(C)C)cc1 (stereo in doubt; (-)28) | 
0.75 µM |  | CC(C)C[C@@]1(C(=O)O)C[C@H](C(=O)O)[C@H](c2cccs2)N1C(=O)c1ccc(C(C)(C)C)cc1 | 
0.3 µM | 11.9 µM | CC(C)C[C@@]1(C(=O)O)C[C@H](C(=O)O)[C@H](c2cccs2)N1C(=O)c1ccc(C(F)(F)F)cc1 (stereo in doubt; (+)-1) | 
> 20 µM |  | COC(=O)[C@]1(CC(C)C)C[C@H](C(=O)O)[C@H](c2cccs2)N1C(=O)c1ccc(C(F)(F)F)cc1 | 
0.03 µM | 2.1 µM | CC(C)C[C@@]1(C(=O)O)C[C@H](C(=O)O)[C@H](c2nccs2)N1C(=O)c1ccc(C(C)(C)C)cc1 (stereo in doubt; (+)28) | 
> 30 µM |  | CC(C)C[C@@]1(C(=O)O)C[C@H](C(N)=O)[C@H](c2cccs2)N1C(=O)c1ccc(C(F)(F)F)cc1 (stereo in doubt; (-)29) | 
0.33 µM |  | CC(C)C[C@@]1(C(=O)O)C[C@H](C(N)=O)[C@H](c2cccs2)N1C(=O)c1ccc(C(C)(C)C)cc1 | 
18 µM |  | CC(C)C[C@@]1(C(=O)O)C[C@H](C(=O)O)[C@H](c2cccs2)N1C(=O)c1ccc(C(F)(F)F)cc1 (stereo in doubt; (-)1) | 
2.23 µM |  | CC(C)C[C@@]1(C(=O)O)C[C@H](C(N)=O)[C@H](c2cccs2)N1C(=O)c1ccc(C(F)(F)F)cc1 (stereo in doubt; (+)29) | 
8.1 µM |  | CC(C)C[C@@]1(C(N)=O)C[C@H](C(=O)O)[C@H](c2cccs2)N1C(=O)c1ccc(C(F)(F)F)cc1 | 
4.4 µM |  | CC(C)C[C@@]1(C(=O)O)C[C@H](C(N)=O)[C@H](c2cccs2)N1C(=O)c1ccc(C(F)(F)F)cc1 (stereo in doubt; 19) | 

Second part, the compound before the results:

Structure (SMILES) | IC50 [1] | IC50 [2] | other results
CC(C)C[C@@]1(C(=O)O)C[C@H](C(N)=O)[C@H](c2nccs2)N1C(=O)c1ccc(C(C)(C)C)cc1 (stereo in doubt; (-)32) | 2.5 µM |  | 
CC(C)C[C@@]1(C(=O)O)C[C@H](C(=O)NS(C)(=O)=O)[C@H](c2nccs2)N1C(=O)c1ccc(C(F)(F)F)cc1 | 0.41 µM |  | 
COC(=O)[C@H]1C[C@@](CC(C)C)(C(=O)O)N(C(=O)c2ccc(C(F)(F)F)cc2)[C@H]1c1cccs1 | > 20 µM |  | 
CC(C)C[C@@]1(C(=O)O)C[C@H](CO)[C@H](c2cccs2)N1C(=O)c1ccc(C(F)(F)F)cc1 |  |  | inhibition (Hepacivirus hominis): 51%
CC(C)C[C@@]1(C(=O)O)C[C@H](C(=O)NS(C)(=O)=O)[C@H](c2nccs2)N1C(=O)c1ccc(C(C)(C)C)cc1 | 0.04 µM |  | Papp [3]: < 0.03 ×10⁻⁶ cm/s
CC(C)C[C@@]1(C(=O)O)C[C@H](C(=O)NS(C)(=O)=O)[C@H](c2cccs2)N1C(=O)c1ccc(C(F)(F)F)cc1 | 0.23 µM |  | 
CNC(=O)[C@]1(CC(C)C)C[C@H](C(=O)O)[C@H](c2cccs2)N1C(=O)c1ccc(C(F)(F)F)cc1 | > 20 µM |  | 
CCNC(=O)[C@]1(CC(C)C)C[C@H](C(=O)O)[C@H](c2cccs2)N1C(=O)c1ccc(C(F)(F)F)cc1 | > 20 µM |  | 
CC(C)C[C@@]1(C(=O)Nc2ccccc2)C[C@H](C(=O)O)[C@H](c2cccs2)N1C(=O)c1ccc(C(F)(F)F)cc1 | > 20 µM |  | 
CC(C)C[C@@]1(C(=O)NC(C)C)C[C@H](C(=O)O)[C@H](c2cccs2)N1C(=O)c1ccc(C(F)(F)F)cc1 | > 20 µM |  | 
CC(C)C[C@@]1(CO)C[C@H](C(=O)O)[C@H](c2cccs2)N1C(=O)c1ccc(C(F)(F)F)cc1 |  |  | inhibition (Hepacivirus hominis): 0%
CC(C)C[C@@]1(C(=O)O)C[C@H](C(N)=O)[C@H](c2nccs2)N1C(=O)c1ccc(C(C)(C)C)cc1 (stereo in doubt; 32) | 0.08 µM | 4.4 µM | 
CC(C)C[C@@]1(C(=O)OCc2ccccc2)C[C@H](C(=O)O)[C@H](c2cccs2)N1C(=O)c1ccc(C(F)(F)F)cc1 | > 20 µM |  | 
CC(C)C[C@@]1(C(=O)O)C[C@H](C(=O)NS(=O)(=O)Cc2ccccc2)[C@H](c2nccs2)N1C(=O)c1ccc(C(C)(C)C)cc1 | 0.55 µM | 4.23 µM | 
CC(C)C[C@@]1(C(=O)NCc2ccccc2)C[C@H](C(=O)O)[C@H](c2cccs2)N1C(=O)c1ccc(C(F)(F)F)cc1 | > 20 µM |  | 
COC(=O)[C@H]1C[C@@](CC(C)C)(C(=O)OC)N(C(=O)c2ccc(C(F)(F)F)cc2)[C@H]1c1cccs1 | > 20 µM |  | 
CC(C)C[C@@]1(C(=O)O)C[C@H](C(=O)NS(=O)(=O)c2ccccc2)[C@H](c2nccs2)N1C(=O)c1ccc(C(C)(C)C)cc1 | 0.5 µM | 3.15 µM | 
CC(C)C[C@@]1(C(=O)O)C[C@H](C(=O)Nc2ccccc2)[C@H](c2nccs2)N1C(=O)c1ccc(C(C)(C)C)cc1 (stereo in doubt; 41) | 0.16 µM | 3.1 µM | IC50 (Hepatitis C virus; Hepatitis C virus): 45 µM
CC(C)C[C@@]1(C(=O)O)C[C@H](C(=O)Nc2ccccc2)[C@H](c2nccs2)N1C(=O)c1ccc(C(C)(C)C)cc1 (stereo in doubt; (-)41) |  | > 100 µM | CC50 (Hepatitis C virus; Hepatitis C virus): > 200 µM
CC(C)C[C@@]1(C(=O)O)C[C@H](C(N)=O)[C@H](c2nccs2)N1C(=O)c1ccc(C(C)(C)C)cc1 (stereo in doubt; (+)32) | 0.07 µM | 3.8 µM | 
CC(C)C[C@@]1(C(=O)O)C[C@H](C(=O)Nc2ccccc2)[C@H](c2nccs2)N1C(=O)c1ccc(C(C)(C)C)cc1 (stereo in doubt; (+)41) |  | 0.5 µM | IC50 (Hepatitis C virus): 30 µM
CC(C)C[C@@]1(C(=O)O)C[C@H](C(N)=O)[C@H](c2nccs2)N1C(=O)c1ccc(C(F)(F)F)cc1 | 2.05 µM |  | 
CC(C)C[C@@]1(C(=O)O)C[C@H](C(=O)NS(=O)(=O)C(F)(F)F)[C@H](c2cccs2)N1C(=O)c1ccc(C(F)(F)F)cc1 | 0.2 µM |  | 
CNC(=O)[C@H]1C[C@@](CC(C)C)(C(=O)O)N(C(=O)c2ccc(C(C)(C)C)cc2)[C@H]1c1nccs1 |  | 22 µM | 
CC(C)C[C@@]1(C(=O)O)C[C@H](C(=O)O)[C@H](c2nccs2)N1C(=O)c1ccc(C(F)(F)F)cc1 | 0.45 µM |  | 
CC(C)C[C@@]1(C(=O)O)C[C@H](C(=O)NCc2ccccc2)[C@H](c2nccs2)N1C(=O)c1ccc(C(C)(C)C)cc1 | 8.29 µM | 68 µM | 
